One test deals with RBL-2H3 mast cells. The experiment in a line: Degranulation assay, histamine release (enzyme immunoassay). It is filed as cell-based, rat. The following applies: for inhibition of histamine release: PTD-conjugated peptide without SLO (LY294002 as positive control), DNP-IgE sensitized, DNP-BSA stimulation, no A23187 pretreatment, three independent experiments (Figure 2C); for inhibition of histamine release after A23187 pretreatment: cells pretreated with A23187, sensitized with DNP-IgE, then PTD-conjugated peptide (Figure 4B).

Test [1] addresses T1, SN23-Syn4-Vp8 SNARE complex (Rattus norvegicus, UniProt O70377+Q08850+Q9WUF4).
T1 construct: Syn4 (amino acids 1–298); SNAP-23 (amino acids 1–210); VAMP8 (amino acids 1–100); GST (N, cleaved yes); made in house; host or cells: Escherichia coli Rosetta(DE3)pLysS
T1 sequence (Q08850 1-298): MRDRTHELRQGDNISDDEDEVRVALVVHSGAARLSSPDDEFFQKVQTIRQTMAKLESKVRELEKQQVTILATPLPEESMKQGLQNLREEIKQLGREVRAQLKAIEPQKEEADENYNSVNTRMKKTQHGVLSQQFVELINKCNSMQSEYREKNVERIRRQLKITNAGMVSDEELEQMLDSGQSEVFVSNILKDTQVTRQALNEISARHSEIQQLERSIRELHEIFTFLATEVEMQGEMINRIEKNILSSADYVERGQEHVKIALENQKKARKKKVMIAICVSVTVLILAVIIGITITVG
T1 sequence (O70377 1-210): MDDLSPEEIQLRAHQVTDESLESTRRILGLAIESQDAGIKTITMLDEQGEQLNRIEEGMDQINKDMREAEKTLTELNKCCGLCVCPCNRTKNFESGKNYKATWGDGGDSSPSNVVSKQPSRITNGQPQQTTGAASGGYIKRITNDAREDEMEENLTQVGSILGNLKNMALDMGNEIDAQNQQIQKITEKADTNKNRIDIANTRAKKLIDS
T1 sequence (Q9WUF4 1-100): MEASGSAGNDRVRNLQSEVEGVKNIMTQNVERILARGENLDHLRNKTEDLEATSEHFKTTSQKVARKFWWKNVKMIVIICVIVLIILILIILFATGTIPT
The experiment in a line: SNARE-driven membrane fusion (total lipid mixing) assay with proteoliposomes. It is filed as biochemical. Particulars: peptide added after preincubation of T- and V-liposomes at 4°C overnight (partially zippered SNAREs) (Figure 4A).

The target in the next test is T2, SN23-Syn4-Vp8 complex (Rattus norvegicus, UniProt O70377+Q08850+Q9WUF4).
T2 construct: Lysates of RBL-2H3 cells; endogenous in cells; host or cells: RBL-2H3 (ATCC CRL-2256)
T2 sequence (Q08850 1-298): T1 sequence (Q08850 1-298)
T2 sequence (O70377 1-210): T1 sequence (O70377 1-210)
T2 sequence (Q9WUF4 1-100): T1 sequence (Q9WUF4 1-100)
The experiment in a line: Co-immunoprecipitation of SNARE complexes in activated RBL-2H3 cells, anti-SNAP-23 blot. In kind it is cell-based. The following applies: peptides added to the medium after A23187 pretreatment; IP of Vp8, blot anti-SNAP-23 (Figure 4C). As for the experimental part:
Lysates of RBL-2H3 cells (0.5–1 × 10^6 cells), which were obtained by the addition of 1 mL lysis buffer (50 mM Tris–HCl, 150 mM NaCl, 1% Triton X-100™, 1 mM EDTA, pH 7.5) supplemented with a protease inhibitor cocktail (Calbiochem®, Merck Millipore, Billerica, MA, USA), were centrifuged at 13,000 g at 4°C to remove cell debris and precleared with 100 µL protein G Sepharose® (GE Healthcare) for 2 h at 4°C. The precleared lysates were incubated with antibodies against SNARE proteins (Syn4, SNAP-23, VAMP2, and VAMP8) for 2 h at 4°C for binding, and then the antibody–antigen complexes were precipitated by incubation with a protein G slurry overnight with constant shaking. After an extensive washing step with lysis buffer, an immunoblotting analysis was performed for the precipitates. The immunoprecipitated proteins and cell lysates were electrophoresed on 12% sodium dodecyl sulfate-polyacrylamide gel electrophoresis gels and then transferred to nitrocellulose blotting membranes (GE Healthcare). After blocking the membranes in TBST (10 mM Tris–HCl, 150 mM NaCl, and 0.05% Tween® 20, pH 8) containing 0.5% BSA and 5% skim milk for 1 h at room temperature, primary anti-SNAP-23 antibody (1:1,000 dilution) in TBST supplemented with 1% BSA and 0.01% sodium azide was added and incubated at 4°C overnight. The membranes were washed with TBST, treated with a horseradish peroxidase-conjugated secondary anti-mouse IgG antibody (A4416, Sigma-Aldrich), and visualized using enhanced chemiluminescence solution for the development of a luminescent signal.

Turning to “SARHSEIQQLERTIREL [Syn4N, 17-mer peptide, N-terminal region of syntaxin 4 SNARE motif]”, in the test with RBL-2H3 mast cells, the “inhibition of histamine release” value was “almost equally inhibited the release of both β-hexosaminidase and histamine”; the “inhibition of histamine release after A23187 pretreatment” value was “inhibited both histamine and β-hexosaminidase release”. Further, in test [1], the “inhibition of membrane fusion, peptide added after preincubation” value (from here on “inhibition of membrane fusion”) was “inhibitory activities significantly diminished”. In addition, at SN23-Syn4-Vp8 complex, the “SNARE complex formation in cells (amount of SN23-Syn4-Vp8 complex)” value (“SNARE complex formation in cells” below) is recorded as “reduced”.

Consider “LQSEVEGVKNIMTQNVE [Vp8N, 17-mer peptide, N-terminal region of VAMP8 SNARE motif]”, for which, in the test on RBL-2H3 mast cells, the “inhibition of histamine release” value was “almost equally inhibited the release of both β-hexosaminidase and histamine”; the “inhibition of histamine release after A23187 pretreatment” value is “inhibited both histamine and β-hexosaminidase release”. For the same sequence, the “inhibition of membrane fusion” value in test [1] was “inhibitory activities significantly diminished”. Further, the “SNARE complex formation in cells” value at SN23-Syn4-Vp8 complex is reported as “reduced”.

For the sequence “EDEMEENLTQVGSILGN [SC23N, 17-mer peptide, N-terminal region of SNAP-23 SNARE motif SC23]”, the “inhibition of membrane fusion” value in test [1] is “inhibitory activities significantly diminished”. Besides, the “SNARE complex formation in cells” value on SN23-Syn4-Vp8 complex is given as “reduced”.

The values above are taken from PMC5904360, “Soluble N-Ethylmaleimide-Sensitive Factor Attachment Protein Receptor-Derived Peptides for Regulation of Mast Cell Degranulation” (Frontiers in Immunology, 2018).
